Measured values taken from patent publication US20180042930A1, “METHODS OF TREATMENT OF MALIGNANCIES” (Celgene Corporation, priority 2016, published 2018).

Legend:
[1] = test system: 2-HG plasma levels; test: Phase 1/2 study: pharmacodynamic response, 2-HG plasma levels; format: in vivo, human
Description: Dose Escalation Phase: The dose escalation phase utilized a standard “3+3” design. During the dose escalation phase, consented eligible subjects with relapsed or refractory acute myelogenous leukemia (AML), untreated AML≧60 years of age who were not candidates for standard therapy, or myelodysplastic syndrome with refractory anemia with excess blasts were enrolled into sequential cohorts of increasing doses of COMPOUND A not to exceed 650 mg QD dose. Each dose cohort enrolled a minimum of 3 subjects. The first 3 subjects enrolled in each dosing cohort during the dose escalation portion of the study received a single dose of study drug on Day −3 (i.e., 3 days prior to the start of daily dosing) and underwent safety and PK/PD assessments over 72 hours to evaluate drug concentrations and 2-HG and α-KG levels. The next dose of study drug was on Cycle 1 Day 1 (C1D1) at which time daily dosing began. The initial dosing schedule was twice daily (approximately every 12 hours). Based on the emerging data, a once daily dosing schedule also has been implemented. […]
Subjects in the dose escalation phase and Part 1 Expansion also underwent PK/PD assessments over a 10-hour period on C1D15, C2D1, and C4D1. […] Available bone marrow biopsy samples also were assessed for 2-HG and α-KG levels. […]

[2] = test system: subjects with advanced hematologic malignancies with an IDH2 mutation; test: Phase 1/2 study: safety profile (AEs, NCI CTCAE); format: in vivo, human; conditions: 100 mg
Excerpt: A DLT was defined as outlined below.
Monitoring of AEs, including determination of DLTs, serious adverse events (SAEs), and AEs leading to discontinuation; safety laboratory parameters; physical examination findings; vital signs; 12-lead ECGs; LVEF; and ECOG PS.

[3] = test system: MDS and mIDH2; test: Example 2: clinical response to COMPOUND A monotherapy (IWG 2006 MDS criteria), survival; format: in vivo, human
Excerpt: (§1) Cheson et al., Blood. 108:419-425 (2006). […] Overall survival (OS) was estimated using Kaplan-Meier methods.

[4] = test system: MDS and mIDH2; test: Example 3: clinical response to COMPOUND A monotherapy (IWG 2006 MDS criteria), survival; format: in vivo, human
Excerpt: as §1

[5] = test system: patients with MDS and mIDH2; test: Example 3: safety, treatment-emergent adverse events
Description: Patients were relapsed or refractory to prior MDS therapy (Tx) or were not candidates for standard therapies. […] Evaluable patients required a response assessment at Cycle 2 Day 1 or later, or discontinued before assessment. Overall survival (OS) was estimated using Kaplan-Meier methods. Next-generation sequencing identified pre-existing co-occurring genomic alterations using the FoundationOne Heme test on purified mononuclear cells from BM or PB, to assess relationships between co-mutational status and clinical response.

[6] = 10 evaluable pts with prior HMA Tx
[7] = evaluable pts had ≧5% BM blasts at baseline
[8] = sustained ≧4 weeks, from beginning COMPOUND A Tx
[9] = 13 patients with prior HMA therapy
[10] = IWG 2006, denominators reflect eligibility
[11] = investigator-assessed, evaluable patients had ≧5% bone marrow blasts at baseline
[12] = programmatically adjudicated per IWG 2006 criteria, denominators reflect eligibility

## CC(C)(O)CNc1nc(Nc2ccnc(C(F)(F)F)c2)nc(-c2cccc(C(F)(F)F)n2)n1.CS(=O)(=O)O [COMPOUND A, mesylate salt of 2-methyl-1-[(4-[6-(trifluoromethyl)pyridin-2-yl]-6-{[2-(trifluoromethyl)pyridin-4-yl]amino}-1,3,5-triazin-2-yl)amino]propan-2-ol]
[1]; most subjects with R140Q mutation, all doses, sustained reduction by Day 1 of Cycle 2
  inhibition of 2-HG plasma levels: up to 98%
[1]; subjects with R172K mutation
  exposure and inhibition of 2-HG versus dose: Increasing dose was associated with higher exposure and inhibition of 2-HG
[2]
  safety profile, including ≧Grade 3: consistent with that of lower doses
[3]; 4 pts with no prior MDS Tx
  responses in pts with no prior MDS Tx: a PR and mCR (1 each)
[3]; [6]
  pts with a response among pts who had received prior HMA Tx: 5 pts
  response rate among pts who had received prior HMA Tx: 50%
[3]; MDS pts N=16
  Best response Hematologic Improvement: (27) %
  Best response Hematologic Improvement, pts/evaluable: 4/15
[3]; MDS pts N=16, oral 60-300 mg daily, 28-day cycles
  Overall response rate (CR + PR + mCR + HI), responders/evaluable: 8/15
[3]; [7]
  Best response Complete Remission: (11) %
  Best response Marrow CR: (22) %
  Best response Marrow CR, pts/evaluable: 2/9
  Best response Partial Remission: (11) %
  Best response Partial Remission, pts/evaluable: 1/9
[3]; median follow-up of 4.7 months, Kaplan-Meier
  Median OS: not reached
[3]; [8]
  Median time to CR, PR, or mCR: 24 days
  time to CR, PR, or mCR, range: 17 to 87 days
[3]; sustained ≧8 weeks
  Median time to HI: 11 days
  time to HI, range: 11 to 60 days
[4]; [9]
  patients with a response among patients who had received prior HMA therapy: 7 patients
  response rate among patients who had received prior HMA therapy: 54%
[4]; [10]
  HI-E: 20%
  HI-E, patients/eligible: 3/15
  HI-N: 40%
  HI-N, patients/eligible: 4/10
  HI-P: 33%
  HI-P, patients/eligible: 4/12
[4]; MDS patients N=17
  Overall response rate (CR + PR + mCR + HI): 59%
  Overall response rate (CR + PR + mCR + HI), responders/evaluable: 10/17
[4]; [11]
  Best response Complete Remission: 9%
  Best response Complete Remission, patients/evaluable: 1/11
  Best response Marrow CR: 27%
  Best response Marrow CR, patients/evaluable: 3/11
  Best response Partial Remission: 9%
  Best response Partial Remission, patients/evaluable: 1/11
[4]; median follow-up of 7.5 months
  median overall survival: not reached
[4]; of patients who attained HI
  patients with bilineage improvement: 2 patients
  patients with trilineage improvement: 2 patients
[4]; [12]
  Any Hematologic Improvement (HI): 29%
  Any Hematologic Improvement (HI), patients/eligible: 5/17
[4]; treated MDS patients
  median time to response: 21 days
  time to response, range: 10 to 87 days
[5]; MDS patients n=17
  Grade 3-4 TEAE Anemia: 18%
  Grade 3-4 TEAE Dyspnea: 12%
  Grade 3-4 TEAE Tumor lysis syndrome: 12%
  Grade 3-4 TEAE hypokalemia: 18%
  Grade 3-4 TEAE pneumonia: 24%
  Grade 3-4 TEAE thrombocytopenia: 24%
  Grade 3-4 treatment-emergent AEs (TEAEs): 82%
  Grade 3-4 treatment-emergent AEs (TEAEs), patients: 14 patients
  grade 3-4 drug-related TEAE, patients: Six
  treatment related deaths: No treatment related deaths were reported
[5]; n=17, tumor lysis syndrome [2], blood bilirubin increased, transaminitis
  COMPOUND A-related serious TEAEs, patients: 4 patients
[5]; n=17, unconjugated, includes hyperbilirubinemia and blood bilirubin increased
  Grade 3-4 TEAE Hyperbilirubinemia: 30%
